In US20230002357A1, “7-PYRIMIDINE-2-YL-OXY-INDAZOLE DERIVATIVES AND THEIR USE AS HERBICIDES” (SYNGENTA CROP PROTECTION AG, priority 2019, published 2023):

Tests used:
Assay type in all cases: in vivo
Details in all cases: 250 g/ha, evaluated after 13 days
[1] = system: Setaria faberi (SETFA); test: Pre-emergence Test, glasshouse, SETFA
In short: (§1)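 Glasshouse spray test with 1-day (pre-emergence) or 8-day (post-emergence) application timing; rate 250 g/ha unless stated otherwise. Visual percentage damage at 13 days, banded 1 (0-20%) to 5 (81-100%).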

[2] = system: Amaranthus retoflexus (AMARE); test: Pre-emergence Test, glasshouse, AMARE
In short: as §1

[3] = system: Setaria faberi (SETFA); test: Post-emergence Test, glasshouse, SETFA
In short: as §1

[4] = system: IPOHE; test: Post-emergence Test, glasshouse, IPOHE
In short: as §1

[5] = system: Echinochloa crus-galli (ECHCG); test: Pre-emergence Test, glasshouse, ECHCG
In short: as §1

[6] = system: ABUTH; test: Pre-emergence Test, glasshouse, ABUTH
In short: as §1

[7] = system: ABUTH; test: Post-emergence Test, glasshouse, ABUTH
In short: as §1

[8] = system: Echinochloa crus-galli (ECHCG); test: Post-emergence Test, glasshouse, ECHCG
In short: as §1

[9] = system: Amaranthus retoflexus (AMARE); test: Post-emergence Test, glasshouse, AMARE
In short: as §1

[10] = system: IPOHE; test: Pre-emergence Test, glasshouse, IPOHE
In short: as §1

Row | Compound | percentage damage caused to the plant, five-point scale, SETFA [1] | percentage damage caused to the plant, five-point scale, AMARE [2] | percentage damage caused to the plant, five-point scale, SETFA [3] | percentage damage caused to the plant, five-point scale, IPOHE [4] | percentage damage caused to the plant, five-point scale, ECHCG [5] | percentage damage caused to the plant, five-point scale, ABUTH [6] | percentage damage caused to the plant, five-point scale, ABUTH [7] | percentage damage caused to the plant, five-point scale, ECHCG [8] | percentage damage caused to the plant, five-point scale, AMARE [9] | percentage damage caused to the plant, five-point scale, IPOHE [10]
1 | N#Cc1cc(Cl)cnc1Oc1cc(Cl)cc2cnn(CCCC(F)(F)F)c12 [Compound 1.017] | 1 (1=0-20%) | 1 (1=0-20%) | 1 (1=0-20%) | 1 (1=0-20%) | 1 (1=0-20%) | 1 (1=0-20%) | 1 (1=0-20%) | 1 (1=0-20%) | 4 (4=61-80%) | 1 (1=0-20%)
2 | FC(F)(F)CCn1ncc2cccc(Oc3ncc(Cl)cn3)c21 [Compound 1.042] | 5 (5=81-100%) | 5 (5=81-100%) | 4 (4=61-80%) | 2 (2=21-40%) | 5 (5=81-100%) | 4 (4=61-80%) | 4 (4=61-80%) | 4 (4=61-80%) | 4 (4=61-80%) | 1 (1=0-20%)
3 | FC(F)(F)CCCn1ncc2c(Cl)ccc(Oc3ncc(Cl)cn3)c21 [Compound 1.013, 4-chloro-7-(5-chloropyrimidin-2-yl)oxy-1-(4,4,4-trifluorobutyl)indazole] | 5 (5=81-100%) | 5 (5=81-100%) | 5 (5=81-100%) | 2 (2=21-40%) | 5 (5=81-100%) | 2 (2=21-40%) | 5 (5=81-100%) | 5 (5=81-100%) | 5 (5=81-100%) | 1 (1=0-20%)
4 | COc1cc(Oc2cccc3cnn(CCCC(F)(F)F)c23)ncn1 [Compound 1.012] | 1 (1=0-20%) | 2 (2=21-40%) | 1 (1=0-20%) | 1 (1=0-20%) | 1 (1=0-20%) | 1 (1=0-20%) | 1 (1=0-20%) | 1 (1=0-20%) | 1 (1=0-20%) | 1 (1=0-20%)
5 | FC(F)(F)CCCn1nc(Br)c2cccc(Oc3ncc(Cl)cn3)c21 [Compound 1.006, 3-bromo-7-(5-chloropyrimidin-2-yl)oxy-1-(4,4,4-trifluorobutyl)indazole] | 5 (5=81-100%) | 5 (5=81-100%) | 4 (4=61-80%) | 2 (2=21-40%) | 5 (5=81-100%) | 2 (2=21-40%) | 5 (5=81-100%) | 5 (5=81-100%) | 5 (5=81-100%) | 1 (1=0-20%)
6 | CC(C)Cn1nc(Cl)c2cccc(Oc3ncc(Cl)cn3)c21 [Compound 1.057] | 4 (4=61-80%) | 2 (2=21-40%) | 1 (1=0-20%) | 1 (1=0-20%) | 2 (2=21-40%) | 2 (2=21-40%) | 2 (2=21-40%) | 1 (1=0-20%) | 3 (3=41-60%) | 1 (1=0-20%)
7 | CC(C)=CCCn1nc(Cl)c2cccc(Oc3ncc(Cl)cn3)c21 [Compound 1.066] | 5 (5=81-100%) | 3 (3=41-60%) | 3 (3=41-60%) | 2 (2=21-40%) | 4 (4=61-80%) | 2 (2=21-40%) | 4 (4=61-80%) | 3 (3=41-60%) | 4 (4=61-80%) | 1 (1=0-20%)
8 | Fc1cnc(Oc2cccc3c(C(F)(F)F)nn(CCCC(F)(F)F)c23)nc1 [Compound 1.071] | 5 (5=81-100%) | 5 (5=81-100%) | 4 (4=61-80%) | 4 (4=61-80%) | 5 (5=81-100%) | 3 (3=41-60%) | 5 (5=81-100%) | 4 (4=61-80%) | 5 (5=81-100%) | 2 (2=21-40%)
9 | Fc1cc(Cl)cnc1Oc1ccc(Cl)c2cnn(CCCC(F)(F)F)c12 [Compound 1.031] | 1 (1=0-20%) | 1 (1=0-20%) | 1 (1=0-20%) | 1 (1=0-20%) | 1 (1=0-20%) | 1 (1=0-20%) | 1 (1=0-20%) | 1 (1=0-20%) | 4 (4=61-80%) | 1 (1=0-20%)
10 | FC(F)(F)CCCn1ncc2ccc(Br)c(Oc3ncc(Cl)cn3)c21 [Compound 1.036] | 1 (1=0-20%) | 1 (1=0-20%) | 1 (1=0-20%) | 1 (1=0-20%) | 1 (1=0-20%) | 1 (1=0-20%) | 1 (1=0-20%) | 1 (1=0-20%) | 1 (1=0-20%) | 1 (1=0-20%)
11 | COc1nn(CCCC(F)(F)F)c2c(Oc3ncc(Cl)cn3)cccc12 [Compound 1.033, 7-(5-chloropyrimidin-2-yl)oxy-3-methoxy-1-(4,4,4-trifluorobutyl)indazole] | 1 (1=0-20%) | 2 (2=21-40%) | 1 (1=0-20%) | 1 (1=0-20%) | 1 (1=0-20%) | 1 (1=0-20%) | 1 (1=0-20%) | 1 (1=0-20%) | 1 (1=0-20%) | 1 (1=0-20%)
12 | Fc1cc(Cl)cnc1Oc1cccc2cnn(CCCC(F)(F)F)c12 [Compound 1.002] | 2 (2=21-40%) | 1 (1=0-20%) | 3 (3=41-60%) | 1 (1=0-20%) | 2 (2=21-40%) | 1 (1=0-20%) | 2 (2=21-40%) | 3 (3=41-60%) | 2 (2=21-40%) | 1 (1=0-20%)
13 | FC(F)(F)CCn1nc(Cl)c2cccc(Oc3ncc(Cl)cn3)c21 [Compound 1.035] | 5 (5=81-100%) | 4 (4=61-80%) | 4 (4=61-80%) | 4 (4=61-80%) | 5 (5=81-100%) | 3 (3=41-60%) | 5 (5=81-100%) | 5 (5=81-100%) | 5 (5=81-100%) | 3 (3=41-60%)
